Assay results reported in paper PMC9610999, “Itraconazole-Induced Increases in Gilteritinib Exposure Are Mediated by CYP3A and OATP1B” (Molecules, 2022).

Columns and labels:
human OATP1B1 (SLCO1B1) = target: T1, human OATP1B1 (SLCO1B1) (Homo sapiens, UniProt Q9Y6L6); test: Transport inhibition assay: EβG uptake in OATP1B1 overexpressing HEK293 cells; assay type: cell-based; details: OATP1B1 overexpressing HEK293 cells vs vector control; radiolabeled EβG; 15 min pre-incubation; read-out: IC50, inhibition of OATP1B1-mediated cellular accumulation of EβG
T1 construct: expressed in transfected cells; host or cells: HEK293
T1 sequence (Q9Y6L6 1-691): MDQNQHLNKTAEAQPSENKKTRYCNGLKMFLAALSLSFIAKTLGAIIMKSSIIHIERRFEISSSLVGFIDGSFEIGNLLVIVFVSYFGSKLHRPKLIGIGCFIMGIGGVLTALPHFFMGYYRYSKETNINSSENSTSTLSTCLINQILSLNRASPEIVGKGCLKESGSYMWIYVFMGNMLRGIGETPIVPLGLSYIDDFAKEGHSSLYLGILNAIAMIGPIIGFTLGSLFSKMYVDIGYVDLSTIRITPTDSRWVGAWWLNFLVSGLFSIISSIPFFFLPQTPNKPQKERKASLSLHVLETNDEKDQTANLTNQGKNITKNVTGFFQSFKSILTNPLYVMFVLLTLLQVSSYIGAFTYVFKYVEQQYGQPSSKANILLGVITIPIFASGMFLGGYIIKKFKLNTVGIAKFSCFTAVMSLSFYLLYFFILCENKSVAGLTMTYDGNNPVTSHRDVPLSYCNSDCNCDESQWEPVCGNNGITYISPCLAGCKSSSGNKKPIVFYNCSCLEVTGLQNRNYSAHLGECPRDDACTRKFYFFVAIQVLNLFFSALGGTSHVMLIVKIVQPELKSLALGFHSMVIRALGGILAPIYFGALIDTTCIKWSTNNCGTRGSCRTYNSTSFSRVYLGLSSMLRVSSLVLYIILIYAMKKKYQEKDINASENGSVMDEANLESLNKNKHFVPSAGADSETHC
Method: Human embryonic kidney (HEK293) cells stably transfected with human OATP1B1 (SLCO1B1) cDNA, or an empty control vector were established and cultured as previously described. Cells were maintained in DMEM supplemented with 10% FBS, 50 µg/mL hygromycin B, 15 µg/mL blasticidin, and maintained in a humidified incubator at 37 °C with 5% CO2. Prior to plating, 24-well tissue culture plates (Thermo Fisher Scientific) were coated with poly-d-lysine. Seeding media was prepared using phenol red-free DMEM with 10% FBS with no selection agents. To the seeding media, […] of doxycycline was added to induce expression of OATP1B1.
OATP1B1 overexpressing cells and vector control cells were plated in 24-well tissue culture plates at a volume of 0.5 mL (containing 2 × 10^6 cells/mL) per well. Plates were returned to an incubator at 37 °C and transport assays were conducted 24 h later. Transport activity was measured using EβG, a prototypical substrate of OATP1B1. Experiments were conducted using phenol red- and serum-free DMEM. Intracellular levels of total radioactivity originating from EβG were assessed by liquid scintillation counting. The resulting counts were normalized to total protein levels as determined by a Pierce protein assay. The influence of gilteritinib, itraconazole, keto-itraconazole, or hydroxy-itraconazole on OATP1B1-mediated transport was assessed following a 15 min pre-incubation at various concentrations of test inhibitors followed by co-incubation of test inhibitors with EβG. Inhibition of transport activity by gilteritinib was determined by comparing the accumulation of EβG in the presence of gilteritinib, itraconazole, keto-itraconazole, or hydroxy-itraconazole to that of EβG in the presence of only the control vehicle, DMSO. The final concentration of DMSO in media was less than 0.2% in all in vitro experiments.

[1] = system: CDCA-24G, an endogenous biomarker of OATP1B transporter function; test: Plasma CDCA-24G (endogenous biomarker of OATP1B function) in mice treated with itraconazole; assay type: in vivo
[2] = system: OATP1B biomarkers coproporphyrin (CP) I and CPIII; design: method as in PMID 34049965, PMID 29777022; details: itraconazole 100 mg to human subjects; cited from earlier work

SMILES: CC(=O)C(C)n1ncn(-c2ccc(N3CCN(c4ccc(OC[C@H]5CO[C@](Cn6cncn6)(c6ccc(Cl)cc6Cl)O5)cc4)CC3)cc2)c1=O (stereo partly shown) [keto-itraconazole]
- IC50 (human OATP1B1 (SLCO1B1)): 7.5 µM

SMILES: CC(O)C(C)n1ncn(-c2ccc(N3CCN(c4ccc(OCC5COC(Cn6cncn6)(c6ccc(Cl)cc6Cl)O5)cc4)CC3)cc2)c1=O (stereo not shown) [hydroxy-itraconazole]
- IC50 (human OATP1B1 (SLCO1B1)): 2.95 µM

SMILES: CCC(C)n1ncn(-c2ccc(N3CCN(c4ccc(OCC5COC(Cn6cncn6)(c6ccc(Cl)cc6Cl)O5)cc4)CC3)cc2)c1=O (stereo not shown) [Itraconazole]
- IC50 (human OATP1B1 (SLCO1B1)): 27.3 µM
- CDCA-24G AUC0–4h ([1]; 100 mg/kg): 5.10 (±1.60) ng ∗ h/mL
- CDCA-24G AUC0–4h ([1]; CYP3A(−/−) female mice, itraconazole 100 mg/kg): 3.30 (±1.00) ng ∗ h/mL
- CDCA-24G AUC Fold Increase ([1]; CYP3A(−/−) mice, itraconazole 100 mg/kg, vs. CYP3A(−/−) untreated): 1 fold
- CDCA-24G AUC Fold Increase ([1]; CYP3A(−/−) mice, itraconazole 100 mg/kg, vs. WT Alone): 0.9 fold
- CDCA-24G AUC Fold Increase ([1]; Wild-type FVB mice, itraconazole 100 mg/kg, vs. CYP3A(−/−) + Itraconazole): 1.5 fold
- CDCA-24G AUC Fold Increase ([1]; Wild-type FVB mice, itraconazole 100 mg/kg, vs. WT untreated): 1.3 fold
- Effect on circulating levels of coproporphyrin (CP) I and CPIII [2]: not associated with changes
